Measured values: patent US20070129281A1, “Pharmaceutical compounds” (priority 2003, published 2007)
“Also recorded” adds a separate entry of the source.

Target: T1, PTP1B catalytic domain (residues 1-321) (Homo sapiens, UniProt P18031)
T1 construct: crystallisation of the catalytic domain of PTP1B (residues 1-321) were based on literature conditions; made in house; host or cells: E. coli BL21(DE3), vector pET19b
T1 sequence (P18031 1-321): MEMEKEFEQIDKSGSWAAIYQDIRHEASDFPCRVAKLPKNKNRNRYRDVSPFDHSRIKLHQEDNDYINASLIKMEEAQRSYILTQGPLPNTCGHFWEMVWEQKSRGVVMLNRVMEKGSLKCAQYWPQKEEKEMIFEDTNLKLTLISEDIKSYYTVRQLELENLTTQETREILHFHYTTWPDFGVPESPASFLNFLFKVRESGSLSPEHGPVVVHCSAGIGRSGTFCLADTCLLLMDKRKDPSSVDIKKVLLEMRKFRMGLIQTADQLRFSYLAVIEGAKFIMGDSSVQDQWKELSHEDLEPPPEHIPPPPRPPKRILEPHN
Experiment: Crystal soaking of PTP1B crystals with X-ray structure determination (oxidation state of Cys215)
Conditions: for State of the catalytic Cys215 / active site of PTP1B in the crystal after soaking (X-ray data): crystals soaked about 24 hours in mother liquor without DTT containing 100 mM compound
Procedure: For overnight soaking experiments crystals were transferred into a standard mother liquor containing 16% PEG 4000, 0.1 M HEPES (pH 7.5), 0.2 M magnesium acetate, 10 mM DTT and the compound of interest (See Table 3 below).
All data were collected at 100 K. Data sets of sulfenic- sulfinic- and sulfonic acid PTP1B derivatives were automatically collected on a Jupiter140 CCD detector mounted on a RU3HR rotating anode generator equipped with an ACTOR sample-changing robot (RigakuMSC, The Woodlands Tex., USA). They were processed and scaled using D*TREK^21 and converted to structure factors using programs from the CCP4 suite^22.
Oxidation of Cys215 to the sulfenyl-amide derivative was carried out by soaking crystals for approximately 24 hours in mother liquor without DTT, but containing 100 mM 2-phenyl-isoxazolidine-3,5-dione. Data were collected at station 14.1 (SRS, Daresbury) and processed and scaled using MOSFLM/SCALA^22.
Reversibility of the sulfenyl-amide derivative was checked by first soaking two crystals in 100 mM 2-phenyl-isoxazolidine-3,5-dione for 24 hours.
All results were evaluated using the graphics programs QUANTA (Accelrys, San Diego Calif., USA) and Astexviewer™^23. Initial refinement was always carried out using the CCP4-based Astex automatic refinement scripts, followed by rounds of positional and B-factor refinement with REFMAC5^22 alternated with manual rebuilding steps using QUANTA.

| Compound | State of the catalytic Cys215 / active site of PTP1B in the crystal after soaking (X-ray data) | State of the catalytic Cys215 / active site of PTP1B in the crystal after soaking (X-ray data) (listed as 2-Phenyl-isoxazolidine-3,5-dione) | Active site conformation of sulfenyl-amide PTP1B crystal after back soaking (reversibility, X-ray data) (back soaking 24 hours in mother liquor containing 20 mM reduced glutathione, after a 100 mM 2-phenyl-isoxazolidine-3,5-dione soak) |
| --- | --- | --- | --- |
| O=C1CC(=O)N(c2ccccc2)O1 [2-phenyl-isoxazolidine-3,5-dione] | Sulfenyl-amide formation was confirmed | confirmed the formation of the sulfenyl-amide bond |  |
| N[C@@H](CCC(=O)N[C@@H](CS)C(=O)NCC(=O)O)C(=O)O [reduced glutathione, glutathione] |  |  | entire active site back in its native conformation; also recorded: confirmed the active site in its native conformation |
